The source of these data is article PMC3340011 (Biophysical Chemistry, 2011).

Test [1] in a line: Calcium dissociation from fluorescent indicator dye. The test is classed as binding.
The next test has as its system CaM1–80, sites I and II. Description: Fluorescence-monitored equilibrium Ca^2+ titration, sites I and II of CaM1–80. The class given is binding, rat.
The target in test [2] is CaM1–80 (N-domain of calmodulin) (Rattus norvegicus, UniProt P0DP29). Kind of test: Fluorescence anisotropy titration of Fl-Cav1.2p with CaM N-domain. The settings on record: pre-IQ region, calcium-saturated. The test is classed as binding.
Test [3] relates to CaM1–148, sites I and II (N-domain). Kind of test: Fluorescence-monitored equilibrium Ca^2+ titration, sites I and II of CaM1–148. The test is classed as binding, rat. To be noted: for ΔΔG2 = ΔG2^app(CaM+CaV1.2p) − ΔG2^app(CaM): CaM1–148, sites I and II; for effect on Ca^2+-binding affinity of N-domain (in words): compared with IQ1644.
Test [4] has as its system CaM76–148, sites III and IV. The test is classed as binding, rat.
Test [5] deals with CaM1–148, sites III and IV (C-domain). Description: Fluorescence-monitored equilibrium Ca^2+ titration, sites III and IV of CaM1–148. The test is classed as binding, rat. The settings on record: for ΔΔG2 = ΔG2^app(CaM+CaV1.2p) − ΔG2^app(CaM): CaM1–148, sites III and IV.
Test [6] addresses CaM76–148 (C-domain of calmodulin) (Rattus norvegicus, UniProt P0DP29). Description: Fluorescence anisotropy titration of Fl-Cav1.2p with CaM C-domain. The test is classed as binding. On the technique in general: Fluorescence polarisation rises when a labelled molecule tumbles more slowly, as on binding a larger partner.
In test [7] the test system is CaM1–148, sites I and II (N-domain). To be noted: previous study; cited from earlier work.
Test [8] has as its system CaM1–148, sites III and IV (C-domain). The settings on record: previous study; cited from earlier work.
Where [9] appears, read: no peptide, 2 μM CaM, pH 7.4, 22 °C, average ± SD.
[10] abbreviates: no peptide, pH 7.4, 22 °C, average ± SD.

Entries after “also recorded” stand apart in the source; their conditions may differ.

As to XRhod5F, the “fold lower Kd for calcium (vs Oregon Green)” value in test [1] is listed as ~ 20 fold.
Turning to “CaM1–80: N-domain fragment of calmodulin, residues 1–80”, in the test with CaM1–80, sites I and II (setting [9]), the “ΔG1^app (calcium binding)” value is -5.92 ± 0.38 kcal/mol and the “ΔG2^app (calcium binding)” value is -12.76 ± 0.09 kcal/mol.
For H-FNATLFALVRTALRIKTEGNLE-OH [A1588], the “domain preference, (Ca^2+)2-N-domain” value in [2] is “bound preferentially to A1588; also recorded: higher affinity for CaM1–80 than for CaM76–148; also recorded: binding the N-domain of CaM more favorably than the C-domain”. Also, the “ΔΔG2 = ΔG2^app(CaM+CaV1.2p) − ΔG2^app(CaM)” value in the test on CaM1–80, sites I and II was -1.55 kcal/mol; in test [3], -2.99 kcal/mol; in test [4], -0.72 kcal/mol; in test [5] it was -1.05 kcal/mol. Moreover, the “effect on Ca^2+-binding affinity of C-domain (in words)” value in test [5] was “weak effect”.
Regarding H-ELRAIIKKIWKRTSMKLLDQVV-OH [C1614], the “domain preference, (Ca^2+)2-C-domain” value in [6] (pre-IQ region, calcium-saturated) is “preferred C1614”. The “ΔΔG2 = ΔG2^app(CaM+CaV1.2p) − ΔG2^app(CaM)” value with CaM1–80, sites I and II was -1.15 kcal/mol; in test [3] it was -1.10 kcal/mol; in [4] it was -2.95 kcal/mol; in test [5], -2.94 kcal/mol. The “effect on Ca^2+-binding affinity of N-domain (in words)” value in [3] is reported as “much weaker effect”. Besides, the “effect on Ca^2+-binding affinity of N-domain of CaM1–148” value in test [7] was “there was not an effect on the N-domain”. In addition, in test [8], the “effect on Ca^2+-binding affinity of C-domain of CaM1–148” value is listed as “increased the Ca^2+-binding affinity of the C-domain of CaM1–148”.
Broadly, the Kd is a measure of binding affinity in units of concentration. For the molecule `CC[C@H](C)[C@H](NC(=O)[C@H](CC(C)C)NC(=O)[C@H](Cc1ccccc1)NC(=O)[C@@H](NC(=O)[C@H](C)N)[C@@H](C)O)C(=O)N[C@@H](CCC(N)=O)C(=O)N[C@@H](CCC(=O)O)C(=O)N[C@@H](Cc1ccc(O)cc1)C(=O)N[C@@H](Cc1ccccc1)C(=O)N[C@@H](CCCNC(=N)N)C(=O)N[C@@H](CCCCN)C(=O)N[C@@H](Cc1ccccc1)C(=O)N[C@@H](CCCCN)C(=O)N[C@@H](CCCCN)C(=O)N[C@@H](CCCNC(=N)N)C(=O)N[C@@H](CCCCN)C(=O)N[C@@H](CCC(=O)O)C(=O)N[C@@H](CCC(N)=O)C(=O)NCC(=O)N[C@@H](CC(C)C)C(=O)N[C@H](C(=O)NCC(=O)N[C@@H](CCCCN)C(=O)N1CCC[C@H]1C(=O)N[C@@H](CO)C(=O)N[C@@H](CCC(N)=O)C(=O)O)C(C)C` [IQ′1650], the “fold more favorable affinity for CaM76–148 than CaM1–80” value in test [6] (Ca^2+-saturated) was “about 100 fold”. Also, in [6] (Kd (CaM dissociation from Fl-Cav1.2p), calcium-saturated, CaM76–148, 10 mM CaCl2, pH 7.4, 22 °C, limit), the Kd was no more than 10 nM. The “ΔΔG2 = ΔG2^app(CaM+CaV1.2p) − ΔG2^app(CaM)” value in the test on CaM1–80, sites I and II was -0.82 kcal/mol; in test [3], -1.24 kcal/mol; in test [4], -3.35 kcal/mol; in test [5] it was -3.63 kcal/mol. Also, the “effect on Ca^2+-binding affinity of N-domain (in words)” value in test [3] is given as “much weaker effect”.
For the molecule “CaM76–148: C-domain fragment of calmodulin, residues 76–148”, in test [4] (setting [10]), the “ΔG1^app (calcium binding)” value is -5.45 ± 0.51 kcal/mol and the “ΔG2^app (calcium binding)” value was -14.66 ± 0.13 kcal/mol.
